In patent publication US5807885A, “Amidine derivatives with nitric oxide synthetase activities” (priority 1996, dated 1998):

Columns and labels:
[1] = target: T1, neuronal nitric oxide synthetase (Rattus norvegicus, UniProt P29476); assay: Screen A: screen for neuronal nitric oxide synthetase inhibitory activity; assay type: biochemical; conditions: for IC50: neuronal isoform, rat hippocampus or cerebellum supernatant, read-out: IC50 (concentration of drug substance which gives 50% enzyme inhibition in the assay)
T1 construct: Enzyme was isolated from rat hippocampus or cerebellum; from tissue; host or cells: cerebellum or hippocampus of male Sprague-Dawley rat, 20,000 g supernatant
T1 sequence (P29476 whole entry, canonical isoform): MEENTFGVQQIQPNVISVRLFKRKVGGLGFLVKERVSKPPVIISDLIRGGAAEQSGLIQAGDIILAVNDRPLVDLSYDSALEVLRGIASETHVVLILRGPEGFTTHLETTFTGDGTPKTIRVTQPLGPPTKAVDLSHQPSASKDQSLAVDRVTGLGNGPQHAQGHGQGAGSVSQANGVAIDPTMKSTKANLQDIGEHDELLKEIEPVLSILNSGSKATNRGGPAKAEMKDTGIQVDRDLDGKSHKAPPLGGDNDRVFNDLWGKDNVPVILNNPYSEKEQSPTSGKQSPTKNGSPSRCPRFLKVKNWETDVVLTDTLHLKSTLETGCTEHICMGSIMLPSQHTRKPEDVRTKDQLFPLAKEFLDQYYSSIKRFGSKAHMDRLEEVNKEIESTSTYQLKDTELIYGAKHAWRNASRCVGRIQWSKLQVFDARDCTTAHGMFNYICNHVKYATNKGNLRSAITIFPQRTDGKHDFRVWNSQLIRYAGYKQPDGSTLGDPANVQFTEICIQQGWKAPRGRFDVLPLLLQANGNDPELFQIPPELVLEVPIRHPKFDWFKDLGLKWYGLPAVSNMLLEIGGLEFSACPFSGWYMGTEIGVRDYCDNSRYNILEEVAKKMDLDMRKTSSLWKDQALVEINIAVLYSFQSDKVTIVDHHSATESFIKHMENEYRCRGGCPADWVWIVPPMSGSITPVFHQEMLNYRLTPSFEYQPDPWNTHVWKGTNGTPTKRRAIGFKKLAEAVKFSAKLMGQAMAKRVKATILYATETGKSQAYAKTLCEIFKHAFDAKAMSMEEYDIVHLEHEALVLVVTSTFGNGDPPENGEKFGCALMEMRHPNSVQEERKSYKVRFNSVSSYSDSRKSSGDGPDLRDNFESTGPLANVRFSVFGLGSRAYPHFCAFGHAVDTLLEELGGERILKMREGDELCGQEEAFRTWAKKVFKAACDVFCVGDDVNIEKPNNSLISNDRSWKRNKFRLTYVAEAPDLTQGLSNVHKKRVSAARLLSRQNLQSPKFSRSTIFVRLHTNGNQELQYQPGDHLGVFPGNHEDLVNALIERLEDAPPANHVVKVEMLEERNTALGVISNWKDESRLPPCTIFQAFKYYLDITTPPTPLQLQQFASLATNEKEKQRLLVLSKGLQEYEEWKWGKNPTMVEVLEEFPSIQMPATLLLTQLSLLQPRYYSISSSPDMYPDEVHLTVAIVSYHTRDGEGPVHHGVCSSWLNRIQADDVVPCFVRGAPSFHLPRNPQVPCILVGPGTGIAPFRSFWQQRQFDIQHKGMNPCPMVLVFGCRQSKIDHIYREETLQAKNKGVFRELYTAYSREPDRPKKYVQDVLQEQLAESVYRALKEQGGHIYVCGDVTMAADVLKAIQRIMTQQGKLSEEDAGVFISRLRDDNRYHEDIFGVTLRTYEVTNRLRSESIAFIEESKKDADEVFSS
Description: (A) Screen for neuronal nitric oxide synthetase inhibitory activity
Enzyme was isolated from rat hippocampus or cerebellum. The cerebellumn or hippocampus of a male Sprague-Dawley rat (250-275 g) is removed following CO2 anaesthesia of the animal and decapitation. Cerebellar or hippocampal supernatant is prepared by homogenisation in 50 mM Tris-HCl with 1 mM EDTA buffer (pH 7.2 at 25° C.) and centifugation for 15 minutes at 20,000 g. Residual L-arginine is removed from the supernatant by chromatography through Dowex AG-50W-X8 sodium form and hydrogen form columns successively, and further centrifugation at 1000 g for 30 seconds.
For the assay, 25 μl of the final supernatant is added to each of 12 test tubes containing 25 μl L-arginine solution (of concentration 18 μM ^1 H-L-arginine, 96 nM ^3 H-L-arginine) and either 25 μl of an assay buffer (50 mM HEPES, 1 mM EDTA, 1.5 mM CaCl2, pH 7.4) or 25 μl of test compound in the buffer at 22° C. To each test tube was added 75 μl of complete assay buffer (50 mM HEPES, 1 mM EDTA, 1.5 mM CaCl2, 1 mM DTF, 100 μM NADPH, 10 μg/ml calmodulin, pH 7.4) to initiate the reaction and the reaction is stopped after 10 minutes by addition of 2 ml of a termination buffer (20 mM HEPES, 2 mM EDTA, pH 55).
Labelled L-citrulline is separated from labelled L-arginine by chromatography over a Dowex AG-50W-X8 200-400 mesh column. 1 ml of each terminated reaction is added to an individual 1 ml column and the eluant combined with that from two 1 ml distilled water washes and 16 ml of scintillation cocktal The L-citrulline is then quantified by scintillation counting.
IC50 values for test compounds were initially estimated from the inhibiting activity of 1, 10 and 100 μM solutions of the compounds. Compounds that inhibited the enzyme by at least 50% at 10 μM were retested using more appropriate concentrations so that an IC50 could be determined.

[2] = target: T2, macrophage nitric oxide synthetase (Mus musculus, UniProt P29477); assay: Screen B: screen for macrophage nitric oxide synthetase activity; assay type: biochemical, murine; conditions: macrophage isoform (Screen B) versus neuronal isoform (Screen A)
T2 construct: Nitric oxide synthetase is produced by cells in response to interferon-γ (IFNγ) and lipopolysaccharide (LPS); endogenous in cells; host or cells: murine macrophage cell line J774A-1, induced with IFN-gamma and LPS (cell line from Imperial Cancer Research Fund)
Description: The enzyme nitric oxide synthetase has a number of isoforms and compounds of formula I, or pharmaceutically acceptable salts thereof, may be screened for nitric oxide synthetase inhibitory activity by procedures based on those of Bredt and Snyder in Proc. Natl. Acad. Sci (1990) 87, 682-685 and Forstermann et. al. (1992) Eur. J. Pharm. 225,161-165 as follows. Nitric axide synthetase converts ^3 H-L-arginine to ^3 H-L-citrulline which can be separated by cation exchange chromatography and quantified by liquid scintillation counting.
(B) Screen for macrophage nitric oxide synthetase activity
Enzyme is prepared; after induction, from the cultured murine macrophage cell line J774A-1 (obtained from laboratories of the Imperial Cancer Research Fund). J774A-1 cells are cultured in Dulbecco's Modified Eagles Medium (DMEM) supplemented with 10% foetal bovine serum, 4 mM L-glutamine and antibiotics (100 units/ml penicillin G, 100 μg/ml streptomycin & 0.25 μg/m amphotericin B). Cells are routinely grown in […] flasks containing 35 ml medium kept at 37° C. and in a humidified atmosphere containing 5% CO2.
Nitric oxide synthetase is produced by cells in response to interferon-γ (IFNγ) and lipopolysaccharide (LPS). […]
Labelled L-citrulline is separated from labelled L-arginine using Dowex AG-50W. […] After allowing the samples to dry the L-citrulline is quantified by scintillation counting. […]

[3] = target: T3, endothelial nitric oxide synthetase (Homo sapiens, UniProt P29474); assay: Screen C: screen for endothelial nitric oxide synthetase inhibitory activity; assay type: biochemical
T3 construct: Enzyme may be isolated from human umbilical vein endothelial cells (HUVECs); host or cells: human umbilical vein endothelial cells (HUVECs)
T3 sequence (P29474 2-1203): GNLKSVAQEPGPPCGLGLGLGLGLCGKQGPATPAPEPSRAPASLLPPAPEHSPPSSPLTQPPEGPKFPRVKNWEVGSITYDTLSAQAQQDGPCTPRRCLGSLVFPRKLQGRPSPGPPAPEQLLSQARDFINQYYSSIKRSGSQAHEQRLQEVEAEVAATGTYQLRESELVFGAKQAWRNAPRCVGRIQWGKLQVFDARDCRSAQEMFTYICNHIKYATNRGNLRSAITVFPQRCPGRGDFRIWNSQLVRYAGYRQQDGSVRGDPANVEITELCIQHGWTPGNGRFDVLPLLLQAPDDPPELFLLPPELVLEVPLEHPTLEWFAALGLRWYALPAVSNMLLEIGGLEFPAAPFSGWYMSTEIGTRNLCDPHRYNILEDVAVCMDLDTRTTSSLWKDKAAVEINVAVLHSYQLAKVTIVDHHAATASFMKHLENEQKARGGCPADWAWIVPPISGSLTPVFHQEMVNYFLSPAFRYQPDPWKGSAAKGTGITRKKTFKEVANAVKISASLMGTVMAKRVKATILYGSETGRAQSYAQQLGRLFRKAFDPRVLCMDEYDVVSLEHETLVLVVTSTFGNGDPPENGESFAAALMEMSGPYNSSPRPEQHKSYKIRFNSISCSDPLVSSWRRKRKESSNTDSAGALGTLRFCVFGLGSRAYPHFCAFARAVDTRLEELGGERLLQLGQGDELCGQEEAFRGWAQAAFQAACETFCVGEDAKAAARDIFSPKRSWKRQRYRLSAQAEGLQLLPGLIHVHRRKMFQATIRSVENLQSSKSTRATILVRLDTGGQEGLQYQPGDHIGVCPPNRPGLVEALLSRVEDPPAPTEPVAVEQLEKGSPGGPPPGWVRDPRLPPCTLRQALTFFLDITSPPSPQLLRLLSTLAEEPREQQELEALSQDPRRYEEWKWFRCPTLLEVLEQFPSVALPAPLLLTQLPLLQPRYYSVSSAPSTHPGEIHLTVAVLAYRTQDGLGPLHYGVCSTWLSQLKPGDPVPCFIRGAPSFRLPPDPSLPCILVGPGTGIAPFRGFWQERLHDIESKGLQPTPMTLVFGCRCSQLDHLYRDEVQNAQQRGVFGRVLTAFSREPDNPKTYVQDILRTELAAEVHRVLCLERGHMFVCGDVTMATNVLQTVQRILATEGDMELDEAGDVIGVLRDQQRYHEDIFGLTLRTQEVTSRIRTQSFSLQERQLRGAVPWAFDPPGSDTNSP
Description: (C) Screen for endothelial nitric oxide synthetase inhibitory activity
Enzyme may be isolated from human umbilical vein endothelial cells (HUVECs) by a procedure based on that of Pollock et al (1991) Proc. Nat. […] HUVECs were purchased from Clonetics Corp (San Diego, Calif., USA) and cultured to confluency. Cells can be maintained to passage 35-40 without significant loss of yield of nitric oxide synthetase. When cells reach confluency, they are resuspended in Dulbecco's phosphate buffered saline, centrifuged at 800 rpm for 10 mins, the cell pellet homogenised in ice-cold 50 mM Tris-HCl, 1 mM EDTA, 10% glycerol, 1 mM phenylmethylsulphonylfluoride, 2 μM leupeptin at pH 4.2. Following centrifugation at 34,000 rpm for 60 mins, the pellet is solubilised in the homogenisation buffer which also contains 20 mM CHAPS. After a 30 min incubation on ice, the suspension is centrifuged at 34,000 rpm for 30 mins. The resulting supernatant is stored at -80° C. until use. […]
Labelled L-citrulline is separated from labelled L-arginine by chromatography over a Dowex AG-50W-X8 200-400 mesh column. […] The L-citrulline is then quantified by scintillation counting. […]

Q: `N=C(Nc1ccc(CCCC(=O)N2CCOCC2)cc1)c1cccs1` [27(a), N-(4-(3-((4-morpholinyl)carbonyl)propyl)phenyl)-2-thiophenecarboximidamide] was tested. Which IC50 [1] did it give?
A: Its IC50 is < 10 µM.

Q: Which results are given for `NC(=Nc1ccc(CCNCc2ccccc2)cc1)c1cccs1` [Example 1, N-(4-(2-((phenylmethyl)amino)ethyl)phenyl)-2-thiophenecarboximidamide]?
A: IC50 [1]: < 10 µM; IC50 in Screen B relative to IC50 in Screen A [2]: more than 10 times; IC50 in Screen C relative to IC50 in Screen A ([3]; endothelial isoform (Screen C) versus neuronal isoform (Screen A)): more than 10 times

Q: For `N=C(Nc1ccc(C(=O)Nc2ccccc2)cc1)c1cccs1` [Example 27(b), N-(4-((phenylamino)carbonyl)phenyl)-2-thiophenecarboximidamide], which IC50 [1] is on record?
A: Its IC50 is < 10 µM.

Q: Which IC50 [1] does the source give for `NC(=Nc1ccc(NC(=O)N(c2ccccc2)c2ccccc2)cc1)c1cccs1` [Example 48, N-[4-(((Diphenylamino)carbonyl)amino)phenyl]-2-thiophenecarboxamidine] here?
A: The IC50 was < 100 µM.

Q: For `CN(CCc1ccc(NC(=N)C(F)(F)F)cc1)Cc1ccccc1` [Example 72, N-(4-(2-((phenylmethyl)(methyl)amino)ethyl)phenyl)trifluoroacetimidamide], which inhibition at 10 µM ([1]; at 10 μM) is on record?
A: Its inhibition at 10 µM is 17%.

Q: Which inhibition at 1 µM ([3]; Screen C, at a concentration of 1 μM, HUVEC enzyme, read-out: inhibition of nitric oxide synthetase (reference standard)) does the source give for `NC(=N[N+](=O)[O-])NCCC[C@H](N)C(=O)O` [N-nitro-L-arginine, reference compound] here?
A: The inhibition at 1 µM was 70 to 90%.
